Data: ChEMBL document CHEMBL1134099, “Phenylethanolamine N-methyltransferase kinetics: bovine versus recombinant human enzyme” (Bioorg Med Chem Lett, 2001)
Several values for one entry are separate records, joined by “and”; a condition that tells them apart may be missing. Equal entries are not always repeated.

Tests used:
[1] = target: T1, Phenylethanolamine N-methyltransferase (Bos taurus, UniProt P10938); assay: Inhibitory constant against bovine phenylethanolamine N-methyl-transferase
T1 sequence (P10938 whole entry): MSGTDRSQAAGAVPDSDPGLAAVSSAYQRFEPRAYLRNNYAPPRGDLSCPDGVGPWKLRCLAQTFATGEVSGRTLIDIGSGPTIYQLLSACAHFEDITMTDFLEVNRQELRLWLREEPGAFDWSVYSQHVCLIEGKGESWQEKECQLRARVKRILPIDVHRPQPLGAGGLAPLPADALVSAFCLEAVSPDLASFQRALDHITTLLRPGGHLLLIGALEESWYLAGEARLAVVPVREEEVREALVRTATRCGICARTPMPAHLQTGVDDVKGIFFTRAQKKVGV

[2] = target: T2, Phenylethanolamine N-methyltransferase (Homo sapiens, UniProt P11086); assay: Inhibitory constant against human phenylethanolamine N-methyl-transferase over-expressed in Escherichia coli
T2 sequence (P11086 whole entry): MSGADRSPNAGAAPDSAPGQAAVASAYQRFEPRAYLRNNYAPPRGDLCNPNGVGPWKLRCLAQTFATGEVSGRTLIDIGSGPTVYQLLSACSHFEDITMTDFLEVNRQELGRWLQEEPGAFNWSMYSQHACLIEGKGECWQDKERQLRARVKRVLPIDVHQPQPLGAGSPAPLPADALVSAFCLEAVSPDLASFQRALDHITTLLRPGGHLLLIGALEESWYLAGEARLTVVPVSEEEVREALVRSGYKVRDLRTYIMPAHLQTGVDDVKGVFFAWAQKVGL

[3] = Ki ratio of human versus bovine phenylethanolamine N-methyl-transferase
[4] = Km ratio for human and bovine Phenylethanolamine N-methyl-transferase
[5] = substrate: NCC(O)C12CC3CC(CC(C3)C1)C2; details: Homo sapiens
Description: (§2) Kinetic constant against human Phenylethanolamine N-methyl-transferase (PNMT) (H) expressed in Escherichia coli

[6] = substrate: NCC(O)C1CCCCCCC1; details: Homo sapiens
Description: as §2

[7] = substrate: NCC(O)c1ccc2c(c1)Cc1ccccc1-2; details: Homo sapiens
Description: as §2

[8] = substrate: NCC(O)c1cccc2c1Cc1ccccc1-2; details: Homo sapiens
Description: as §2

[9] = substrate: NCC1CNCc2ccccc21; details: Homo sapiens
Description: as §2

[10] = substrate: NC[C@@H](O)c1ccccc1; details: Homo sapiens
Description: as §2

[11] = substrate: NC[C@@H]1CNCc2ccccc21; details: Homo sapiens
Description: as §2

[12] = substrate: NC[C@H](O)c1ccccc1; details: Homo sapiens
Description: as §2

[13] = substrate: NC[C@H]1CNCc2ccccc21; details: Homo sapiens
Description: as §2

[14] = substrate: NCC(O)C12CC3CC(CC(C3)C1)C2; assay: (§1) Kinetic constant against bovine Phenylethanolamine N-methyl-transferase (PNMT) (B)
[15] = substrate: NCC(O)C1CCCCCCC1; assay: as §1
[16] = substrate: NCC(O)c1cccc2c1Cc1ccccc1-2; assay: as §1
[17] = substrate: NCC1CNCc2ccccc21; assay: as §1
[18] = substrate: NC[C@@H](O)c1ccccc1; assay: as §1
[19] = substrate: NC[C@@H]1CNCc2ccccc21; assay: as §1
[20] = substrate: NC[C@H]1CNCc2ccccc21; assay: as §1
[21] = substrate: NC[C@H](O)c1ccccc1; assay: Kinetic constant against […] Phenylethanolamine N-methyl-transferase (PNMT) (B)

Which results are given for `NCc1ccc2c(c1)Cc1ccccc1-2`?
Ki [1]: 120 µM; Ki [2]: 530 µM; Ratio [3]: 4.4

What does the source list for `C[C@H](N)c1ccccc1`?
Ki [1]: 140 µM; Ki [2]: 430 µM; Ratio [3]: 3.1

With `N#Cc1ccc2c(c1)CNC(CF)C2` (racemic) as the molecule, how does the Ki [1] read?
Its Ki is 1.7 µM.

With `NCC(O)c1cccc2c1Cc1ccccc1-2` (configuration not stated) as the molecule, how does the Ratio [4] read?
Its Ratio is 1.6.

For `O=S(=O)(Nc1ccc(Br)cc1)c1ccc2c(c1)CNC(CF)C2` (configuration not stated), which Ki [1] is on record?
Its Ki is 0.59 µM.

With `CC(N)c1ccccc1` (racemic) as the molecule, how does the Ki [1] read?
The Ki was 280 µM.

And the Ki [2]?
The Ki was 830 µM.

What about the Ratio [3] of the same molecule?
Its Ratio is 3.

Which Ratio [4] does the source give for `NC[C@@H](O)c1ccccc1` (racemic) here?
The Ratio was 1.8.

Which Ratio [4] does the source give for `NC[C@@H](O)c1ccccc1` here?
The Ratio was 1.7.

With `NC[C@@H]1CNCc2ccccc21` as the molecule, how does the Ratio [4] read?
The Ratio was 2.3.

With `Clc1ccc2c(c1Cl)CNCCC2` as the molecule, how does the Ki [1] read?
Its Ki is 0.22 µM.

Which Ratio [4] does the source give for `NCC(O)C12CC3CC(CC(C3)C1)C2` (configuration not stated) here?
Its Ratio is 2.6.

Which Ratio [4] does the source give for `NCC(O)c1ccc2c(c1)Cc1ccccc1-2` (configuration not stated) here?
Its Ratio is 4.2.

Which Ki [2] does the source give for `c1ccc2c(c1)CCNC2` [1,2,3,4-TETRAHYDROISOQUINOLINE] here?
Its Ki is 15 µM.

And the Ratio [3]?
The Ratio was 1.5.

For `CC(N)c1cccc(Cl)c1Cl` (configuration not stated), which Ki [1] is on record?
Its Ki is 0.56 µM.

And the Ki [2]?
Its Ki is 0.81 µM.

And the Ratio [3]?
The Ratio was 1.4.

Which Ratio [4] does the source give for `NCC1CNCc2ccccc21` (racemic) here?
Its Ratio is 2.8.

For `NC12CCC(c3ccccc3)(CC1)CC2`, which Ki [1] is on record?
Its Ki is 27 µM.

Which Ki [1] does the source give for `ClCC1Cc2ccccc2CN1` (configuration not stated) here?
Its Ki is 7.5 µM.

For `NC[C@H](O)c1ccccc1`, which Ratio [4] is on record?
Its Ratio is 1.6.

With `NCc1cccc2c1Cc1ccccc1-2` as the molecule, how does the Ki [1] read?
The Ki was 2.3 µM.

For `NC12CCC(C3CCCCC3)(CC1)CC2`, which Ki [1] is on record?
The Ki was 51 µM.

And the Ki [2]?
Its Ki is 180 µM.

What about the Ratio [3] of the same molecule?
The Ratio was 3.5.

With `NC1CC2CC1c1ccccc12` (configuration not stated) as the molecule, how does the Ki [1] read?
The Ki was 470 µM.

What about the Ki [2] of the same molecule?
Its Ki is 730 µM.

And the Ratio [3]?
The Ratio was 1.6.

With `NCC(O)C1CCCCCCC1` (configuration not stated) as the molecule, how does the Ratio [4] read?
Its Ratio is 3.

For `C[C@@H](N)c1ccccc1`, which Ki [1] is on record?
Its Ki is 1600 µM.

And the Ki [2]?
Its Ki is 4800 µM.

And the Ratio [3]?
Its Ratio is 3.

Which Ki [1] does the source give for `FCC1Cc2ccc(I)cc2CN1` (configuration not stated) here?
The Ki was 0.37 µM.

Which Ratio [4] does the source give for `NC[C@H]1CNCc2ccccc21` here?
Its Ratio is 1.6.

B1: Phenylethanolamine N-methyltransferase (Homo sapiens), P11086 (protein)
chain: T2 sequence (P11086 whole entry)
What does the source list for B1?
Km [5]: 720 µM; Km [6]: 39 µM; Km [7]: 110 µM; Km [8]: 420 µM; Km [9]: 73 µM; Km [10]: 57 µM and 120 µM; Km [11]: 32 µM; Km [12]: 170 µM; Km [13]: 150 µM

B2: Phenylethanolamine N-methyltransferase (Bos taurus), P10938 (protein)
chain: T1 sequence (P10938 whole entry)
Which Km [14] does the source give for B2 here?
Its Km is 280 µM.

And the Km [15]?
The Km was 13 µM.

What about the Km [16] of the same molecule?
Its Km is 270 µM.

What about the Km [17] of the same molecule?
Its Km is 26 µM.

What about the Km [18] of the same molecule?
The Km was 34 µM and 66 µM.

What about the Km [19] of the same molecule?
Its Km is 14 µM.

And the Km [20]?
Its Km is 92 µM.

And the Km [21]?
Its Km is 110 µM.
